The text below walks through data of patent US20090312624A1, “ELECTROPHY[…] FOR COGNITIVE MODULATORS” (priority 2008, published 2009).

Entries after “also recorded” stand apart in the source; their conditions may differ. Where two headings read alike, the source gives them in different places.

The test system of one assay is PFC-dependent cognition. The following applies: rats, cited from earlier work.
Assay [1] has as its system catecholamine (norepinephrine and dopamine) neurotransmission. To be noted: moderately higher doses that do not improve PFC-dependent cognition; cited from earlier work.
Another assay relates to prefrontal cortex. As to the kind of experiment: Evoked-response potential (ERP) recorded in the prefrontal cortex following electrical stimulation of the ventral subiculum of the hippocampus. Format: in vivo, rat. The following applies: for effect on the ERP recorded in the PFC (change from baseline): cognition-enhancing dose 0.5 mg/kg i.p., 0-30 min after administration, 0.5 mg/kg. An excerpt:
Male Sprague-Dawley rats (250-350 g) were surgically implanted with 1-4 EEG recording electrodes into the prelimbic region of the PFC (coordinates: A +3.0±1.0 mm; L 0.8±0.3 mm; V −3.0) and a stimulation electrode into the subiculum/CA1 region of the hippocampus (coordinates: A −6.7; L 5.5; V −6.5). EEG signals were referenced to a ground electrode. Electrodes were held in place with acrylic cement and the animals were allowed to recover for 5-10 days prior to the measurements. Animals were provided with free access to food and water during testing.
Animals were tested during daylight hours in a Plexiglas testing chamber (32×32×40 cm) housed in a sound-attenuating chamber. Animals were first habituated to the testing chamber prior to experimentation. Field potentials/EEG signals were amplified and recorded digitally.
ERPs were constructed from peristimulus time histograms. Stimulation intensity that provides a distinct, though not large, ERP (filtered approx. 0.5-150 Hz) was first confirmed from greater than or equal to 50 stimulations that were provided at greater than or equal to 0.1 Hz. Stimulus current (0.1-3.0 mA) from a constant current source was adjusted to produce ERPs that were at least detectable from background electrical activity. Following this calibration of subiculum/CA1 stimulation intensity, ERPs were then collected from one or two 15-minute blocks comprised of a 10-min of hippocampal stimulation period ([…]) followed by 5-minutes of no stimulation. Following baseline recordings, vehicle or a putative cognitive enhancing compound (i.e., psychostimulant such as MPH or other drugs) were administered. ERPs were recorded in 15-min blocks described above for the next 60-90-minutes.
Changes in ERPs were calculated from trial-bin counts used to generate peristimulus time histograms (PSTHs). Data were collected from non-sleep EEG states only, as determined from field potential recordings or in combination with video or other activity measurements. Each PSTH was generated from randomly selected stimulus presentations. Data were expressed as a percentage of baseline ERP activity (pre-vehicle or pre-MPH) and percentage change from saline, which permits comparisons between subjects with different magnitude/shape ERPs.
Appropriate statistical comparisons, including mixed two-way ANOVA with both repeated (time)- and between (treatments)-measures, were used to determine statistical significance of candidate compound-induced changes in PFC. Analyses of ERPs as a function of dose and time and post-hoc comparisons were performed (i.e., Fisher LSD test).

As to `COC(=O)C(c1ccccc1)C1CCCCN1` (stereo not shown) [MPH, methylphenidate], the “effect on PFC-dependent cognition” value is listed as “exerting cognition-enhancing effects” in the assay on PFC-dependent cognition (0.5 mg/kg) and “cognition-impairing; also recorded: lacking cognition-enhancing actions” in the assay on PFC-dependent cognition (2.0 mg/kg). The “selective targeting of prefrontal cortical catecholamines” value in assay [1] is “not observed”. For the same compound, the “components of the ERP versus pre-treatment recordings (baseline)” value with prefrontal cortex (30-60 minute period following drug treatment) is “a number of components of the ERP were different”. Further, the “effect on the ERP recorded in the PFC (change from baseline)” value is “clearly visible and distinct change from baseline; also recorded: alter the magnitude of specific components of the ERP” in the assay with prefrontal cortex; “significant effects” in the assay with prefrontal cortex (listed as methylphenidate). Moreover, the “effect on the ERP recorded in the PFC” value with prefrontal cortex (higher doses that do not improve PFC-dependent cognition (2.0 mg/kg i.p.)) is listed as “do not significantly affect this ERP; also recorded: not observed”.
